This note sets out measurements from patent US9216147B2, “Mild cosmetic cleansing composition” (Henkel AG & Co. KGaA, priority 2011, dated 2015).

A short description of data set [1]: Irritation test (reaction time method) against commercially available baby and children's shampoos. The following applies: 5% in water (reference). On the procedure:
Cleansing agents 1 and 2 were compared in a test (reaction time method) with various commercially available baby and children's shampoos. The shampoos were diluted down to 50% with water in each case.
A 5% sodium laureth sulfate solution served as a reference.
A Q value of >1.20 denotes an irritating effect; a Q value of <0.8 denotes slight irritation.

Data set [2] is described as follows: pH of the diluted test solution. It counts as physicochemical. The conditions noted are these: 5% in water.

Consider “sodium laureth sulfate [Reference (SLES, 5% in water)]”, for which the “Reaction time method [Q]” value in data set [1] turned out to be 1.00. The substance further had a pH in data set [2] of 7.2.
